pIC50: −log10 of the molar value. Active and inactive are the calls of the source. No cut-off for these calls is given here.
Legend:
[1] = Inhibition of rabbit intestinal ACAT2; set-up: species or system Oryctolagus cuniculus
[2] = Inhibition of SOAT1 in arterial homogenates isolated from 1% cholesterol fed New Zealand white rabbit assessed as reduction in cholesteryl oleate formation incubated for 5 mins in presence of [14C]-oleoyl-CoA and BSA complex by TLC method; type: tissue-based, Oryctolagus cuniculus
[3] = Inhibition of SOAT2 in New Zealand white rabbit intestinal microsomes assessed as reduction in cholesteryl oleate formation incubated for 5 mins in presence of [14C]-oleoyl-CoA and BSA complex by TLC method; set-up: species or system Oryctolagus cuniculus, Intestine
[4] = molecular target: T1, Sterol O-acyltransferase 1 (Homo sapiens, UniProt P35610); assay: Inhibition of ACAT1 in human monocytes-derived macrophages reduction in cholesteryl oleate formation preincubated for 2 hrs followed by [14C]-oleic acid/BSA/sodium oleate addition measured after 2 hrs by TLC assay
T1 sequence (P35610 whole entry): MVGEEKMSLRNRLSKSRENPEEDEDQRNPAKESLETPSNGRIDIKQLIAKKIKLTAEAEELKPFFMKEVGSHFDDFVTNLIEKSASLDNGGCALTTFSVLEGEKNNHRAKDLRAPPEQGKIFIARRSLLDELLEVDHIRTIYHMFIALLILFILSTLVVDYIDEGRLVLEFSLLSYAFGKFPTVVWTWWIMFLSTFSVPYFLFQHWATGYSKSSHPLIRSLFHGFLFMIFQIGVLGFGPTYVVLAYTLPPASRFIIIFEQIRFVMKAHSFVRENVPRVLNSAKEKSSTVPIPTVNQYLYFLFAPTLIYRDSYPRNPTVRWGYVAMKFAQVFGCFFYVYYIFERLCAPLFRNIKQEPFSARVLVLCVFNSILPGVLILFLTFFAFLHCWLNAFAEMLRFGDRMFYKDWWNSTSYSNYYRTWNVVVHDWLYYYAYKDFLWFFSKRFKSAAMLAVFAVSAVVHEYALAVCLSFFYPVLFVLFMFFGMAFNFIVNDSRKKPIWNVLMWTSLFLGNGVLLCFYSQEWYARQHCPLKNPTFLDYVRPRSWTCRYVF

[5] = species on record: Oryctolagus cuniculus; assay: Selectivity ratio of IC50 for inhibition of SOAT2 in New Zealand white rabbit intestinal microsomes to IC50 for inhibition of SOAT1 in arterial homogenates isolated from 1% cholesterol fed New Zealand white rabbit
[6] = molecular target: T2, Sterol O-acyltransferase 1 (Mus musculus, UniProt Q61263); assay: Inhibition of ACAT1 in mouse J774 cells assessed as reduction in esterified cholesterol accumulation after 18 hrs in presence of 25-hydroxycholesterol; type: cell-based
T2 sequence (Q61263 whole entry): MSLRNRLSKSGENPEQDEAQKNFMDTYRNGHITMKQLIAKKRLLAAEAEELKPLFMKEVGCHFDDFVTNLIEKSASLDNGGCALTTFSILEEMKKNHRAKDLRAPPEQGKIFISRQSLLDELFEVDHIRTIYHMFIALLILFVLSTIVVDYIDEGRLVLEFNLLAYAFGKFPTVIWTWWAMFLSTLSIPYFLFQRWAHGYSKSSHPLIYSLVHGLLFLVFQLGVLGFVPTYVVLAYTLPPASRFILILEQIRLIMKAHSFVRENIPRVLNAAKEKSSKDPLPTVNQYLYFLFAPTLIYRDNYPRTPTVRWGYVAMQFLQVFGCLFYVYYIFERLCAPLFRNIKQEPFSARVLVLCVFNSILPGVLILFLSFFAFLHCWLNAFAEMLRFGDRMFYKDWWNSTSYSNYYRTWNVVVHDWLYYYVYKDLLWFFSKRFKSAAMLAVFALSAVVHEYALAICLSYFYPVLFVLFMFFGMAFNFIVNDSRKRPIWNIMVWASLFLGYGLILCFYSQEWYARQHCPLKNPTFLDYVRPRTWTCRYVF

[7] = molecular target: T3, Sterol O-acyltransferase 1 (Rattus norvegicus, UniProt O70536); assay: Inhibition of ACAT1 in 1 mg/ml rat liver microsomes
T3 sequence (O70536 whole entry): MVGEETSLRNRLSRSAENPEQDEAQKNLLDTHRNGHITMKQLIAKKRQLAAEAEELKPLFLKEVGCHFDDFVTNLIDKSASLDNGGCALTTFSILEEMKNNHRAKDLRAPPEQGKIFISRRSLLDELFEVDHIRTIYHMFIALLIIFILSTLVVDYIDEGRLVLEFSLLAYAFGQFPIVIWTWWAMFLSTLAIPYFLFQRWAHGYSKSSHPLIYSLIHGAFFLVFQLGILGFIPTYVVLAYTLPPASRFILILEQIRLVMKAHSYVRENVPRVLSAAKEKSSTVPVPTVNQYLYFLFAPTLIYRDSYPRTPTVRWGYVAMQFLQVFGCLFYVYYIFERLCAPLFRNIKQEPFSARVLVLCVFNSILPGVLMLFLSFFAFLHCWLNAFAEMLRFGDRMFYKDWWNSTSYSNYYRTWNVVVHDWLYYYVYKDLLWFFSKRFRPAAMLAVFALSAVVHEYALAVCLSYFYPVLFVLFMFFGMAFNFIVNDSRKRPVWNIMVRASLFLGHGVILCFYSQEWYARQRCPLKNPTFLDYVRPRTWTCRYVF

[8] = molecular target: T3, Sterol O-acyltransferase 1; assay: Inhibition of ACAT1 in 0.2 mg/ml rat liver microsomes
[9] = molecular target: T2, Sterol O-acyltransferase 1; assay: Inhibition of ACAT1 in mouse IC21 cells in presence of BSA; type: cell-based
[10] = molecular target: T2, Sterol O-acyltransferase 1; assay: Inhibition of ACAT1 in mouse IC21 cells in absence of BSA; type: cell-based
[11] = Tmax in non-fasted Sprague-Dawley rat at 30 mg/kg, po by LC-MS/MS analysis; type: ADME, organism-based; conditions: in vivo
[12] = Cmax in non-fasted Sprague-Dawley rat at 30 mg/kg, po by LC-MS/MS analysis; type: ADME, organism-based; set-up: dose 30 mg/kg, route oral; conditions: in vivo
[13] = AUC (0 to 8 hrs) in non-fasted Sprague-Dawley rat at 30 mg/kg, po by LC-MS/MS analysis; type: ADME, organism-based; set-up: dose 30 mg/kg, time < 8 hr, route oral; conditions: in vivo
[14] = test system: Hamster; assay: Antiatherosclerotic activity in Bio F1B hamster model of diet-induced atherosclerosis assessed as reduction in lipid accumulation areas in aortic arch at 1 mg/kg/day added to chow pellets by oil red O staining based assay relative to control; type: functional; conditions: Cricetinae
[15] = test system: Hamster; assay: Antiatherosclerotic activity in Bio F1B hamster model of diet-induced atherosclerosis assessed as reduction in lipid accumulation areas in aortic arch at 3 mg/kg/day added to chow pellets by oil red O staining based assay relative to control; type: functional; conditions: Cricetinae
[16] = test system: Hamster; assay: Antiatherosclerotic activity in Bio F1B hamster model of diet-induced atherosclerosis assessed as reduction in lipid accumulation areas in aortic arch at 10 mg/kg/day added to chow pellets by oil red O staining based assay relative to control; type: functional; conditions: Cricetinae
[17] = test system: Hamster; assay: Toxicity in Bio F1B hamster model of diet-induced atherosclerosis assessed as reduction in total plasma cholesterol at 1 mg/kg/day added to chow pellets relative to control; type: organism-based; set-up: scale not given: the % may be the effect or the level left; conditions: cricetinae, in vivo
[18] = test system: Hamster; assay: Toxicity in Bio F1B hamster model of diet-induced atherosclerosis assessed as reduction in total plasma cholesterol at 3 mg/kg/day added to chow pellets relative to control; type: organism-based; set-up: scale not given: the % may be the effect or the level left; conditions: cricetinae, in vivo
[19] = test system: Hamster; assay: Toxicity in Bio F1B hamster model of diet-induced atherosclerosis assessed as reduction in total plasma cholesterol at 10 mg/kg/day added to chow pellets relative to control; type: organism-based; set-up: scale not given: the % may be the effect or the level left; conditions: cricetinae, in vivo
[20] = test system: Hamster; assay: Antiatherosclerotic activity in Bio F1B hamster model of diet-induced atherosclerosis assessed as reduction in lipid accumulation areas in aortic arch at 0.3 mg/kg/day added to chow pellets by oil red O staining based assay; type: functional, organism-based; conditions: Cricetinae
[21] = molecular target: T1, Sterol O-acyltransferase 1; assay: Inhibition of ACAT1 in human monocytes-derived macrophages reduction in cholesteryl oleate formation preincubated for 2 hrs followed by [14C]-oleic acid/sodium oleate addition measured after 2 hrs in absence of albumin by TLC assay
[22] = Drug metabolism in New Zealand white rabbit intestinal microsomes assessed as 2-((6-((2,6-Diisopropylphenyl)amino)-6-oxohexyl)thio)-benzo[d]oxazole-4-carboxylic acid formation after 30 mins; type: ADME, Oryctolagus cuniculus, Intestine, microsome; conditions: 0.5 h
[23] = Drug metabolism in New Zealand white rabbit intestinal microsomes assessed as -((6-((2,6-Diisopropylphenyl)amino)-6-oxohexyl)thio)benzo-[d]oxazole-7-carboxylic acid formation after 30 mins; type: ADME, Oryctolagus cuniculus, Intestine, microsome; conditions: 0.5 h

| Compound | pIC50 [2] | pIC50 [3] | Ratio IC50 [5] | pIC50 [6] | other results |
| --- | --- | --- | --- | --- | --- |
| CCCCCCCCCCC(C)(C)C(=O)Nc1c(OC)cc(OC)cc1OC [CL-976] | 6.72 | 7.52 |  |  | pIC50 [1]: 7.14 |
| CC(C)c1cc(C(C)C)c(CC(=O)NS(=O)(=O)Oc2c(C(C)C)cccc2C(C)C)c(C(C)C)c1 [AVASIMIBE] | 4.51 | 4.89 | 0.4 | 6.23 | pIC50 [4]: 5.39; pIC50 [7]: 4.92; pIC50 [8]: 6.15; pIC50 [9]: 6.12; pIC50 [10]: 7.22; Tmax [11]: 3.3 h; Cmax [12]: 4.58 µg/mL; AUC(0-t) at 8 h [13]: 48.1 µg·h/mL; inhibition in vivo at 1 mg/kg/day [14]: 33%; inhibition in vivo at 3 mg/kg/day [15]: 14%; inhibition in vivo at 10 mg/kg/day [16]: 0%; Activity [17]: 55%; Activity [18]: 25%; Activity [19]: 10%; inhibition [20]: Active; pIC50 [21]: 7.60 |
| CC(C)c1cccc(C(C)C)c1NC(=O)CCCCCSc1nc2ccc(O)cc2o1 | 7.28 | 7.09 | 1.5 | 5.64 |  |
| CC(C)c1cccc(C(C)C)c1NC(=O)CSc1nc2ccccc2s1 | 7.51 | 7.33 | 1.5 | 6.74 |  |
| CC(C)c1cccc(C(C)C)c1NC(=O)CCCCSc1nc2ccccc2o1 | 7.08 | 6.66 | 2.6 | 5.44 |  |
| CC(C)c1cccc(C(C)C)c1NC(=O)CCCCCSc1nc2ccc(N(C)C)cc2o1 | 7.82 | 7.03 | 6.3 | 5.96 |  |
| Cc1ccc2nc(SCCCCCC(=O)Nc3c(C(C)C)cccc3C(C)C)oc2c1 | 7.47 | 6.96 | 3.2 | 6.40 |  |
| CC(C)c1cccc(C(C)C)c1NC(=O)CCCCCSc1nc2c(N(C)C)cccc2o1 | 7.54 | 6.92 | 4.1 | 6.30 |  |
| CC(C)c1cccc(C(C)C)c1NC(=O)CCCCCCSc1nc2ccccc2s1 | 8.15 | 7.55 | 4 | 6.39 |  |
| CC(C)c1cccc(C(C)C)c1NC(=O)CCCCCCCCCSc1nc2ccccc2s1 | 8.30 | 7.96 | 2.2 | 6.24 |  |
| CC(C)c1cccc(C(C)C)c1NC(=O)CCCCCCCSc1nc2ccccc2o1 | 8.40 | 7.66 | 5.5 | 7.40 |  |
| CC(C)c1cccc(C(C)C)c1NC(=O)CCCCCSc1nc2ccccc2s1 | 7.59 | 7.48 | 1.3 | 5.28 |  |
| CC(C)c1cccc(C(C)C)c1NC(=O)CCCCCSc1nc2ccccc2o1 | 8.00 | 7.19 | 6.5 | 5.72 |  |
| COC(=O)c1cccc2oc(SCCCCCC(=O)Nc3c(C(C)C)cccc3C(C)C)nc12 | 7.59 | 6.09 | 31.2 | 6.05 | Drug metabolism [22]: Metabolite_Detected; Drug metabolism [23]: Metabolite_Detected |
| CC(C)c1cccc(C(C)C)c1NC(=O)CCCCCCCCCCCCCCSc1nc2ccccc2o1 | 7.40 | 7.36 | 1.1 | 6.39 |  |
| CC(C)c1cccc(C(C)C)c1NC(=O)CSc1nc2ccccc2[nH]1 | 5.64 | 5.24 | 2.5 | 6.74 |  |
| COC(=O)c1ccc2nc(SCCCCCC(=O)Nc3c(C(C)C)cccc3C(C)C)oc2c1 | 7.54 | 6.96 | 3.8 | 6.30 |  |
| CC(C)c1cccc(C(C)C)c1NC(=O)CCCCSc1nc2ccccc2[nH]1 | 6.41 | 6.37 | 1.1 | 5.28 |  |

From ChEMBL document CHEMBL4229418, “Design, synthesis and pharmacology of aortic-selective acyl-CoA: Cholesterol O-acyltransferase (ACAT/SOAT) inhibitors” (Bioorg Med Chem, 2018)
